The test system of data set [1] is Balb-C mice. Briefly: Tolerance study on Balb-C mice. In kind it is in vivo. An excerpt: (§1) Compounds of Formula (1) and/or (2) have been tested for safety by the applicants. For example, Compounds (1) and (2) were used in a tolerance and subchronic toxicity study on Balb-C mice (AEC Approval Code: BAM/B/2005/16).
Data set [2] concerns Balb-C mice. Briefly: Subchronic toxicity study on Balb-C mice. In kind it is in vivo.
Excerpt: as §1

Data set [3] concerns male Hartley guinea pigs. Briefly: Guinea pig cough model (neuraminidase aerosol, citric acid challenge). In kind it is in vivo. The conditions noted are these: for Restoration of respiratory tract damages caused by neuraminidase: guinea pig cough model, oral dose of 500 mg/kg/day×3 days, result in words, 500 mg/kg/day. The method, then:
A guinea pig cough model was also established by the applicants. Compounds (1) and (2) were tested in this model. […] These in vivo results are in line with the in vitro data. Thus, both the efficacy and safety data support compounds of Formula (1) and/or (2) and particularly compounds (1) and (2) may be useful for medicinal applications.
Male guinea pigs were housed in pens and have access to water and food ad libitum. This study was approved by Bio21 Institute Animal Ethics Committee.
Twenty four Conscious male Hartley guinea pigs (500˜550 g) were divided into A, B, C three groups (8 animals for each group), and pretreated with either 5 units/ml solution of neuraminidase (Sigma N2133, lyophilized powder, Type X, 150˜400 units/mg protein) in water (group B and C) or saline alone (Group A) via an aerosol for 5 minutes on day one. Then, on day one, two and three, the guinea pigs were either orally administered with 500 mg/kg of compound (1) (Group C), or water alone (Group A and B). On day four, all the animals were challenged with 0.5M citric acid solution (nebulised, 10 minutes exposure). The cough frequency, times to the 1st, 2nd and third cough, and times to the 1st nose rubs were then recorded over a period of 15 minutes.

The conditions of data set [4]: mammals, reference [8]; cited from earlier work.
In data set [5] the test system is Small Airway Epithelial Cells (SAEC). Particulars: SAEC pretreated with neuraminidase, 24 h, control (treated with neuraminidase) = 100%, mean ± SEM, n = 3.
Data set [6] concerns Normal Human Bronchial/Tracheal Epithelial Cells (NHBE). Particulars: NHBE pretreated with neuraminidase, 24 h, control (treated with neuraminidase) = 100%, mean ± SEM, n = 3.
Data set [7] has as its system mucocilliary transport. The conditions noted are these: reference [6]; result in words; cited from earlier work.
The test system of data set [8] is rabbits. Particulars: pre-treatment with repeated administrations (inhalations), reference [7]; cited from earlier work.
Setting [9] is: guinea pigs, neuraminidase aerosol day one, 500 mg/kg oral on days one to three, 0.5M citric acid challenge day four.

Read-outs that look alike come from different tables or passages of the source.

As to `CC(=O)N[C@@H]1C(O)O[C@H](CO)[C@@H](O)[C@@H]1O` (stereo partly drawn) [Compound (1), N-acetyl-D-mannosamine], the Tolerance result in data set [1] (2 g/Kg intraperitoneal dose) was “well tolerated”. Besides, in data set [1] (5 g/Kg oral dose), the Tolerance entry is reported as “well tolerated”. The Subchronic toxicity entry in data set [2] (0.5 g/Kg/day×30 days intraperitoneal dose) is recorded as “non-toxic”. Moreover, the Subchronic toxicity entry in data set [2] (1 g/Kg/day×30 days oral dose) was “non-toxic”. The “Restoration of respiratory tract damages caused by neuraminidase” value (“Restoration” for short) in data set [3] is reported as “could restore the respiratory tract damages caused by neuraminidase”. For the same molecule, the “Restoration” value in data set [3] (listed as compound (1)) is on record as “helped to restore the damages caused by neuraminidase”. Besides, in data set [3] (setting [9]), the “Cough frequency (in 15 minutes)” value was found to be 16 ± 2.2, the “Time (second) to the 1st nose rubs” value is 49 ± 6.5 s, the “Time (seconds) to the 1st cough” value was 85 ± 15 s and the “Time (seconds) to the 2nd cough” value amounted to 137 ± 31 s. Moreover, the “Time (seconds) to the 3rd cough” value in data set [3] (setting [9]) was determined as 220 ± 10 s. The “Metabolism after oral administration” value in data set [4] is “rapidly metabolized into glucose”.

Consider `CC(=O)N[C@H]1[C@H]([C@H](O)[C@H](O)CO)OC(O)(C(=O)[O-])C[C@@H]1O.[Na+]` (stereo partly shown) [Compound (2), N-acetylneuraminic acid sodium salt], for which the Tolerance entry in data set [1] (2 g/Kg intraperitoneal dose) and in data set [1] (5 g/Kg oral dose) was “well tolerated” in each case. Besides, the “Restoration” value in data set [3] (sodium salt) is given as “could restore the respiratory tract damages caused by neuraminidase”.

For the molecule `CC(=O)NC1C(OC(C)=O)OC(COC(C)=O)C(OC(C)=O)C1OC(C)=O` (stereo not shown) [Compound (7)], the Cell viability in data set [5] (compound 0.003 μg/ml) is given as 102% ± 0.62; in data set [5] (compound 0.012 μg/ml), 105% ± 1.83; in data set [5] (compound 0.05 μg/ml), 128% ± 1.98; in data set [5] (compound 0.19 μg/ml), 105% ± 2.01; in data set [5] (compound 0.77 μg/ml), 112% ± 1.29; in data set [5] (compound 3.1 μg/ml), 103% ± 1.14. Further, the Cell viability in data set [5] (compound 12.5 μg/ml) is given as 134% ± 0.81; in data set [5] (compound 50 μg/ml) it was 73% ± 2.18; in data set [6] (compound 0.003 μg/ml), 85% ± 2.71; in data set [6] (compound 0.012 μg/ml), 103% ± 4.70; in data set [6] (compound 0.05 μg/ml), 104% ± 5.85; in data set [6] (compound 0.19 μg/ml) it was 100% ± 0.66. Further, the Cell viability in data set [6] (compound 0.77 μg/ml) is reported as 99% ± 1.93; in data set [6] (compound 3.1 μg/ml), 98% ± 5.65; in data set [6] (compound 12.5 μg/ml), 117% ± 4.12; in data set [6] (compound 50 μg/ml) it was 54% ± 0.98.

Consider `CC(=O)NC1C(O)OC(COC(C)=O)C(OC(C)=O)C1OC(C)=O` (stereo not shown) [Compound (8)], for which the Cell viability is 125% ± 8.51 in data set [5] (compound 0.003 μg/ml); 109% ± 1.16 in data set [5] (compound 0.05 μg/ml); 115% ± 3.52 in data set [5] (compound 0.19 μg/ml); 103% ± 3.21 in data set [5] (compound 0.77 μg/ml); 109% ± 2.79 in data set [5] (compound 3.1 μg/ml); 104% ± 1.95 in data set [5] (compound 12.5 μg/ml). For the same molecule, the Cell viability in data set [5] (compound 50 μg/ml) was 91% ± 3.36; in data set [6] (compound 0.003 μg/ml), 129% ± 1.70; in data set [6] (compound 0.012 μg/ml), 118% ± 3.19; in data set [6] (compound 0.05 μg/ml), 93% ± 1.38; in data set [6] (compound 0.19 μg/ml), 96% ± 1.21; in data set [6] (compound 0.77 μg/ml), 133% ± 2.09. In addition, the Cell viability is on record as 111% ± 2.44 in data set [6] (compound 3.1 μg/ml), 81% ± 0.60 in data set [6] (compound 12.5 μg/ml) and 42% ± 1.55 in data set [6] (compound 50 μg/ml).

In the case of `CC(=O)NC1C(O)OC(CO)C(O)C1O` (stereo not shown) [Compound (9)], the Cell viability is reported as 121% ± 2.42 in data set [5] (compound 0.19 μg/ml); 120% ± 3.14 in data set [5] (compound 0.77 μg/ml); 115% ± 3.17 in data set [5] (compound 3.1 μg/ml); 119% ± 3.04 in data set [5] (compound 12.5 μg/ml); 122% ± 3.21 in data set [5] (compound 50 μg/ml); 100% ± 2.92 in data set [5] (high concentration 78.1 μg/ml). Also, the Cell viability was 90% ± 3.28 in data set [5] (high concentration 312.5 μg/ml); 96% ± 3.16 in data set [5] (high concentration 1.25 mg/ml); 83% ± 2.85 in data set [5] (high concentration 5 mg/ml); 107% ± 3.41 in data set [6] (compound 0.19 μg/ml); 107% ± 1.26 in data set [6] (compound 0.77 μg/ml); 108% ± 3.24 in data set [6] (compound 3.1 μg/ml). The Cell viability in data set [6] (compound 12.5 μg/ml) is 106% ± 3.49; in data set [6] (compound 50 μg/ml), 106% ± 2.52; in data set [6] (high concentration 78.1 μg/ml), 125% ± 3.23; in data set [6] (high concentration 312.5 μg/ml), 95% ± 2.85; in data set [6] (high concentration 1.25 mg/ml) it was 96% ± 2.42; in data set [6] (high concentration 5 mg/ml), 76% ± 2.71.

`CC(=O)N[C@H]1[C@H]([C@H](O)[C@H](O)CO)OC(O)(C(=O)O)C[C@@H]1O` (stereo partly shown) [N-acetylneuraminic acid]: in data set [7], the “Protection against the impairment of the mucocilliary transport” value was “dose-dependently protected”. For the same molecule, the “Prevention of inflammatory changes caused by long term exposure of SO2” value in data set [8] was “remarkably prevented the inflammatory changes”.

`OC[C@H]1O[C@@H](O[C@H]2[C@H](O)[C@@H](O)C(O)O[C@@H]2CO)[C@H](O)[C@@H](O)[C@H]1O` (stereo partly shown) [lactose, reference compound]: the “Protection against the impairment of the mucocilliary transport” value in data set [7] is listed as “not”.

Values taken from patent US10195226B2, “Medicinal carbohydrates for treatment of respiratory conditions” (Australian Biomedical Company Pty Ltd., priority 2009, dated 2019).
